These results are taken from BindingDB's records for doi:10.1016/S0960-894X(97)00408-3 (1997).

For the assay, the target named is 5-hydroxytryptamine receptor 4 (Rattus norvegicus, UniProt Q62758). The experiment in a line: Agonist activity against serotonin 5-HT4 receptor in rat tunica muscularis mucosae assay.
Sequence of 5-hydroxytryptamine receptor 4 (Q62758 whole entry): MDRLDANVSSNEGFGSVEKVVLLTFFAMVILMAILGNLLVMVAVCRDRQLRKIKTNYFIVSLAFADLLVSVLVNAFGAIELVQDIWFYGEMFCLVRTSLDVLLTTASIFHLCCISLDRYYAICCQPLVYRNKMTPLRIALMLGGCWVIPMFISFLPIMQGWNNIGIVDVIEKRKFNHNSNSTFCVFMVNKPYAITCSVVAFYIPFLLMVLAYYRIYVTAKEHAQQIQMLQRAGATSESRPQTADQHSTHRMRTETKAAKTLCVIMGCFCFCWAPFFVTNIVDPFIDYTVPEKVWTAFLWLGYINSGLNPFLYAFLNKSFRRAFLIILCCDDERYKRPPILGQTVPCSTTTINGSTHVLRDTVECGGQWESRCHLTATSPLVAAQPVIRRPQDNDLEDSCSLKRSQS

As for `COc1cc(N)c(Cl)cc1C(=O)NC1C2CC3CC1CN3C2` (configuration not stated) [4-Amino-N-(3-aza-tricyclo[3.3.1.0*3,7*]non-9-yl)-5-chloro-2-methoxy-benzamide], the EC50 came out at 0.382 µM.

In the case of `COc1cc(N)c(Cl)cc1C(=O)NCC1C2CC3CC1CN3C2` (configuration not stated) [4-Amino-N-(3-aza-tricyclo[3.3.1.0*3,7*]non-9-ylmethyl)-5-chloro-2-methoxy-benzamide], the EC50 came out at 0.66 µM. This EC50 is about 1.7-fold higher than that of the compound before.
